# Test results reported in ChEMBL document CHEMBL1155039, “Synthetic antimicrobial peptidomimetics with therapeutic potential” (J Med Chem, 2008).
# Where “and” joins values, the source holds several entries; their conditions need not be identical. Identical values can stand only once. Calls of active or inactive are those of the source. The rule behind the calls is not given here.
# Tested on: not listed separately
# Experiment: Effect on permeability assessed as calcein release from 1-palmitoyl-2-oleoyl-sn-glycero-3-phosphoglycerol vesicle
# Assay type: physicochemical
# Conditions: not given
row,SMILES,Activity
1,COC(=O)[C@H](CCCNC(=N)N)NC(=O)[C@H](Cc1c(C(C)(C)C)[nH]c2c(C(C)(C)C)cc(C(C)(C)C)cc12)NC(=O)[C@@H](N)CCCNC(=N)N,Dose-dependent effect

# Tested on: Staphylococcus aureus
# Experiment: Antibacterial activity against Staphylococcus aureus ATCC 25923 at 8 times MIC after 30 mins
# Assay type: functional
# Conditions: not given
row,SMILES,CFU/ml
1,COC(=O)[C@H](CCCNC(=N)N)NC(=O)[C@H](Cc1c(C(C)(C)C)[nH]c2c(C(C)(C)C)cc(C(C)(C)C)cc12)NC(=O)[C@@H](N)CCCNC(=N)N,10000

# Tested on: Escherichia coli
# Experiment: Effect on outer membrane destabilization in Escherichia coli ML-35p at 128 ug/mL
# Assay type: functional, organism-based
# Conditions: not given
row,SMILES,Activity
1,COC(=O)[C@H](CCCNC(=N)N)NC(=O)[C@H](Cc1c(C(C)(C)C)[nH]c2c(C(C)(C)C)cc(C(C)(C)C)cc12)NC(=O)[C@@H](N)CCCNC(=N)N,Active

# Tested on: Escherichia coli
# Experiment: Effect on inner membrane destabilization in Escherichia coli ML-35p at 256 ug/mL
# Assay type: functional, organism-based
# Conditions: not given
row,SMILES,Activity
1,COC(=O)[C@H](CCCNC(=N)N)NC(=O)[C@H](Cc1c(C(C)(C)C)[nH]c2c(C(C)(C)C)cc(C(C)(C)C)cc12)NC(=O)[C@@H](N)CCCNC(=N)N,Active

# Tested on: Escherichia coli
# Experiment: Antibacterial activity against Escherichia coli ML-35p
# Assay type: functional
# Conditions: not given
row,SMILES,MIC [µg/mL]
1,COC(=O)[C@H](CCCNC(=N)N)NC(=O)[C@H](Cc1c(C(C)(C)C)[nH]c2c(C(C)(C)C)cc(C(C)(C)C)cc12)NC(=O)[C@@H](N)CCCNC(=N)N,32

# Tested on: Escherichia coli
# Experiment: Antibacterial activity against Escherichia coli ATCC 25922
# Assay type: functional
# Conditions: not given
row,SMILES,MIC [µM]
1,CC(C)(C)c1cc(C(C)(C)C)c2[nH]c(C(C)(C)C)c(C[C@H](NC(=O)[C@@H](N)CCCNC(=N)N)C(=O)N[C@@H](CCCNC(=N)N)C(N)=O)c2c1,88
2,COC(=O)[C@H](CCCNC(=N)N)NC(=O)[C@@H](N)Cc1c(C(C)(C)C)[nH]c2c(C(C)(C)C)cc(C(C)(C)C)cc12,55
3,COC(=O)[C@H](CCCNC(=N)N)NC(=O)[C@H](Cc1c(C(C)(C)C)[nH]c2c(C(C)(C)C)cc(C(C)(C)C)cc12)NC(=O)[C@@H](N)CCCNC(=N)N,29
4,COC(=O)[C@H](CCCNC(=N)N)NC(=O)[C@@H](Cc1c(C(C)(C)C)[nH]c2c(C(C)(C)C)cc(C(C)(C)C)cc12)NC(=O)[C@@H](N)CCCNC(=N)N,72

# Tested on: Staphylococcus aureus
# Experiment: Antibacterial activity against Staphylococcus aureus ATCC 25923
# Assay type: functional
# Conditions: not given
row,SMILES,MIC [µM]
1,CC(C)(C)c1cc(C(C)(C)C)c2[nH]c(C(C)(C)C)c(C[C@H](NC(=O)[C@@H](N)CCCNC(=N)N)C(=O)N[C@@H](CCCNC(=N)N)C(N)=O)c2c1,11
2,COC(=O)[C@H](CCCNC(=N)N)NC(=O)[C@@H](N)Cc1c(C(C)(C)C)[nH]c2c(C(C)(C)C)cc(C(C)(C)C)cc12,9.2
3,COC(=O)[C@H](CCCNC(=N)N)NC(=O)[C@H](Cc1c(C(C)(C)C)[nH]c2c(C(C)(C)C)cc(C(C)(C)C)cc12)NC(=O)[C@@H](N)CCCNC(=N)N,7.2
4,COC(=O)[C@H](CCCNC(=N)N)NC(=O)[C@@H](Cc1c(C(C)(C)C)[nH]c2c(C(C)(C)C)cc(C(C)(C)C)cc12)NC(=O)[C@@H](N)CCCNC(=N)N,7.2

# Tested on: Staphylococcus aureus
# Experiment: Antibacterial activity against methicillin-resistant Staphylococcus aureus ATCC 33591
# Assay type: functional
# Conditions: not given
row,SMILES,MIC [µM]
1,CC(C)(C)c1cc(C(C)(C)C)c2[nH]c(C(C)(C)C)c(C[C@H](NC(=O)[C@@H](N)CCCNC(=N)N)C(=O)N[C@@H](CCCNC(=N)N)C(N)=O)c2c1,11
2,COC(=O)[C@H](CCCNC(=N)N)NC(=O)[C@@H](N)Cc1c(C(C)(C)C)[nH]c2c(C(C)(C)C)cc(C(C)(C)C)cc12,9.2
3,COC(=O)[C@H](CCCNC(=N)N)NC(=O)[C@H](Cc1c(C(C)(C)C)[nH]c2c(C(C)(C)C)cc(C(C)(C)C)cc12)NC(=O)[C@@H](N)CCCNC(=N)N,3.6
4,COC(=O)[C@H](CCCNC(=N)N)NC(=O)[C@@H](Cc1c(C(C)(C)C)[nH]c2c(C(C)(C)C)cc(C(C)(C)C)cc12)NC(=O)[C@@H](N)CCCNC(=N)N,7.2

# Tested on: Staphylococcus epidermidis
# Experiment: Antibacterial activity against methicillin-resistant Staphylococcus epidermidis ATCC 27626
# Assay type: functional
# Conditions: not given
row,SMILES,MIC
1,CC(C)(C)c1cc(C(C)(C)C)c2[nH]c(C(C)(C)C)c(C[C@H](NC(=O)[C@@H](N)CCCNC(=N)N)C(=O)N[C@@H](CCCNC(=N)N)C(N)=O)c2c1,3.7 µM
2,COC(=O)[C@H](CCCNC(=N)N)NC(=O)[C@@H](N)Cc1c(C(C)(C)C)[nH]c2c(C(C)(C)C)cc(C(C)(C)C)cc12,4.6 µM
3,COC(=O)[C@H](CCCNC(=N)N)NC(=O)[C@H](Cc1c(C(C)(C)C)[nH]c2c(C(C)(C)C)cc(C(C)(C)C)cc12)NC(=O)[C@@H](N)CCCNC(=N)N,1 µg/mL and 1.4 µM
4,COC(=O)[C@H](CCCNC(=N)N)NC(=O)[C@@H](Cc1c(C(C)(C)C)[nH]c2c(C(C)(C)C)cc(C(C)(C)C)cc12)NC(=O)[C@@H](N)CCCNC(=N)N,3.6 µM

# Tested on: Staphylococcus aureus
# Experiment: Antibacterial activity against glycopeptide intermediate-resistant Staphylococcus aureus CCUG 43316
# Assay type: functional
# Conditions: not given
row,SMILES,MIC [µM]
1,CC(C)(C)c1cc(C(C)(C)C)c2[nH]c(C(C)(C)C)c(C[C@H](NC(=O)[C@@H](N)CCCNC(=N)N)C(=O)N[C@@H](CCCNC(=N)N)C(N)=O)c2c1,22
2,COC(=O)[C@H](CCCNC(=N)N)NC(=O)[C@@H](N)Cc1c(C(C)(C)C)[nH]c2c(C(C)(C)C)cc(C(C)(C)C)cc12,14
3,COC(=O)[C@H](CCCNC(=N)N)NC(=O)[C@H](Cc1c(C(C)(C)C)[nH]c2c(C(C)(C)C)cc(C(C)(C)C)cc12)NC(=O)[C@@H](N)CCCNC(=N)N,11
4,COC(=O)[C@H](CCCNC(=N)N)NC(=O)[C@@H](Cc1c(C(C)(C)C)[nH]c2c(C(C)(C)C)cc(C(C)(C)C)cc12)NC(=O)[C@@H](N)CCCNC(=N)N,21

# Tested on: not listed separately
# Experiment: Toxicity in human erythrocytes assessed as hemolysis
# Assay type: cell-based, Erythrocyte
# Conditions: not given
row,SMILES,EC50 [µM]
1,COC(=O)[C@H](CCCNC(=N)N)NC(=O)[C@@H](N)Cc1c(C(C)(C)C)[nH]c2c(C(C)(C)C)cc(C(C)(C)C)cc12,451
2,COC(=O)[C@H](CCCNC(=N)N)NC(=O)[C@H](Cc1c(C(C)(C)C)[nH]c2c(C(C)(C)C)cc(C(C)(C)C)cc12)NC(=O)[C@@H](N)CCCNC(=N)N,1010

# Tested on: not listed separately
# Experiment: Toxicity in human erythrocytes assessed as hemolysis upto 1000 ug/mL
# Assay type: cell-based
# Conditions: erythrocyte
row,SMILES,Activity
1,CC(C)(C)c1cc(C(C)(C)C)c2[nH]c(C(C)(C)C)c(C[C@H](NC(=O)[C@@H](N)CCCNC(=N)N)C(=O)N[C@@H](CCCNC(=N)N)C(N)=O)c2c1,Not Active
2,COC(=O)[C@H](CCCNC(=N)N)NC(=O)[C@@H](Cc1c(C(C)(C)C)[nH]c2c(C(C)(C)C)cc(C(C)(C)C)cc12)NC(=O)[C@@H](N)CCCNC(=N)N,Not Active

# Tested on: not listed separately
# Experiment: Stability assessed as half life in human plasma
# Assay type: ADME, cell-free
# Conditions: not given
row,SMILES,half-life [h]
1,COC(=O)[C@H](CCCNC(=N)N)NC(=O)[C@H](Cc1c(C(C)(C)C)[nH]c2c(C(C)(C)C)cc(C(C)(C)C)cc12)NC(=O)[C@@H](N)CCCNC(=N)N,2

# Tested on: Plasma
# Experiment: Stability assessed as degradation in human plasma upto 4 days
# Assay type: ADME, cell-free
# Conditions: 96 h
row,SMILES,Activity
1,COC(=O)[C@H](CCCNC(=N)N)NC(=O)[C@H](Cc1c(C(C)(C)C)[nH]c2c(C(C)(C)C)cc(C(C)(C)C)cc12)NC(=O)[C@@H](N)CCCNC(=N)N,Stable

# Tested on: Pseudomonas aeruginosa
# Experiment: Antibacterial activity against Pseudomonas aeruginosa ATCC 27853
# Assay type: functional
# Conditions: not given
row,SMILES,MIC [µM]
1,CC(C)(C)c1cc(C(C)(C)C)c2[nH]c(C(C)(C)C)c(C[C@H](NC(=O)[C@@H](N)CCCNC(=N)N)C(=O)N[C@@H](CCCNC(=N)N)C(N)=O)c2c1,44
2,COC(=O)[C@H](CCCNC(=N)N)NC(=O)[C@@H](N)Cc1c(C(C)(C)C)[nH]c2c(C(C)(C)C)cc(C(C)(C)C)cc12,55
3,COC(=O)[C@H](CCCNC(=N)N)NC(=O)[C@H](Cc1c(C(C)(C)C)[nH]c2c(C(C)(C)C)cc(C(C)(C)C)cc12)NC(=O)[C@@H](N)CCCNC(=N)N,21
4,COC(=O)[C@H](CCCNC(=N)N)NC(=O)[C@@H](Cc1c(C(C)(C)C)[nH]c2c(C(C)(C)C)cc(C(C)(C)C)cc12)NC(=O)[C@@H](N)CCCNC(=N)N,57
